For test [1], the target named is T1, Wild type P450cam (Pseudomonas putida, UniProt P00183). In words: Substrate binding constant Kapp, method of Sligar. Also noted: made in house; host or cells: E. coli JM109, vector pRH1091. The text has this: (§1) Binding of potential substrates was investigated by spectroscopic methods. […] This haem spin-state shift is accompanied by an increase in the haem reduction potential which enables the physiological electron-transfer partner putidaredoxin to reduce P-450cam and initiate the catalytic hydroxylation cycle^26. The haem spin state shift is thus a qualitative indication of the likelihood of molecules shown in Tables 1 and 2 being oxidised by the wild-type and mutant P-450cam enzymes.
(§2) ^a Values are the average of two independent measurements using the
(§3) method of Sligar (S. G. Sligar, Biochemistry, 1976, 15, 5399-5406). The
(§4) value of Kapp is strongly dependent on the concentration of K^+
(§5) in the buffer. At [K^+ ] > 150 mM, Kapp for camphor is 0.6 μM
(§6) for both wildtype and Y96A. Data in this table were determined at [K^
(§7) ] = 70 mM in phosphate buffer, pH 7.4, in order to avoid # salting out o
(§8) substrates at higher ion concentrations.

In test [2] the target is T1, Wild type P450cam. The test is classed as binding, P. putida. The conditions noted are these: Soret band 418 nm to 392 nm.
The target in test [3] is T2, P-450cam mutant Y96A (Pseudomonas putida, UniProt P00183, Y97A).
T2 construct: made in house; host or cells: E. coli JM109, vector pRH1091
In words: Substrate binding constant Kapp, method of Sligar.
Excerpt: as §1, §2, §3, §4, §5, §6, §7, §8

The target of test [4] is T3, P450cam active site mutant Y96L (also C334A) (Pseudomonas putida, UniProt P00183, C335A/Y97L).
T3 construct: reconstituted with putidaredoxin and putidaredoxin reductase
It is filed as biochemical, P. putida. The note with it: substrate phenanthrene. Here is the method: (§9) A buffered solution (50 mM Tris.HCI, pH 7.4), typically 3 ml in volume, containing 10 uM putidaredoxin, 2 uM putidaredoxin reductase, 1 uM cytochrome P-450cam mono-oxygenase (wild-type or mutant), 200 mM KCI, 50 ug/ml bovine liver catalase (Sigma), and 1 mM target organic compound such as cyclohexylbenzene (added as a 0.1 M stock in ethanol) was preincubated at 30° C. for 5 minutes. The enzymatic reaction was initiated by adding NADH to a total concentration of 2 mM. Further four aliquots of NADH (to increase the NADH concentration by 1 mM each time) were added in intervals of 10 minutes, and 30 minutes into the incubation one aliquot of substrate (to increase the concentration by 1 mM) was also added. The reaction was quenched after 60 minutes by adding 0.5 ml chloroform and vortexing the mixture. The phases were separated by centrifugation (4000 g) at 4° C. The chloroform layer was analyzed by gas chromatography.
(§10) For many substrate compounds such as cyclohexylbenzene for which not all the P-450cam-mediated oxidation products are commercially available, the chloroform extracts are evaporated to dryness under a stream of nitrogen. The residues were extracted with hexane and the oxidation products separated by high performance liquid chromatography, eluting with a hexane/isopropanol gradient. The purified products were then identified by mass spectroscopy and particularly nuclear magnetic resonance spectroscopy.
(§11) The NADH concentration can be monitored at 340 nm and, in all cases, more substrates and NADH are added during the incubation.

For test [5], the target named is T4, P450cam active site mutant Y96F (also C334A) (Pseudomonas putida, UniProt P00183, C335A/Y97F).
T4 construct: reconstituted with putidaredoxin and putidaredoxin reductase
The test is classed as biochemical, P. putida. The conditions noted are these: substrate phenanthrene. Here is the method: as §9, §10, §11

In test [6] the target is T5, P450cam active site mutant F87A-F96G-F193A (Pseudomonas putida, UniProt P00183, C335A/F194A/F88A/Y97G).
T5 construct: reconstituted with putidaredoxin and putidaredoxin reductase
It is filed as biochemical, P. putida. The note with it: substrate phenanthrene. Here is the method: as §9, §10, §11

For test [7], the target named is T6, P450cam active site mutant Y96V (also C334A) (Pseudomonas putida, UniProt P00183, C335A/Y97V).
T6 construct: reconstituted with putidaredoxin and putidaredoxin reductase
The test is classed as biochemical, P. putida. The note with it: substrate phenanthrene. The method, then: as §9, §10, §11

For test [8], the target named is T7, P450cam active site mutant Y96A (also C334A) (Pseudomonas putida, UniProt P00183, C335A/Y97A).
T7 construct: reconstituted with putidaredoxin and putidaredoxin reductase
It is filed as biochemical, P. putida. The conditions noted are these: substrate phenanthrene. The method, then: as §9, §10, §11

In test [9] the target is P450cam Mutant Y96A (Pseudomonas putida, UniProt P00183, C335A/Y97A). The test is classed as binding, P. putida.
The target of test [10] is T8, P450cam WT (Pseudomonas putida, UniProt P00183).
T8 construct: reconstituted with putidaredoxin and putidaredoxin reductase
The experiment in a line: Product distribution following oxidation of substrates (GC). The conditions noted are these: substrate phenanthrene. The test is classed as biochemical, P. putida. The method, then: as §9, §10, §11

`CC12CCC(CC1=O)C2(C)C` (single isomer, unassigned) [camphor]: the Kd in test [1] and in [3] was 600 nM each time. Further, the “haem spin-state conversion on substrate binding” value in test [2] was “fully converted the haem to the 5-co-ordinated, high-spin form”.

Consider `c1ccc2c(c1)ccc1ccccc12` [Phenanthrene], for which the “Total products Y96L” value in test [4] amounted to 2.8 area/10^6. Besides, the “Total products Y96F” value in test [5] was 4.5 area/10^6. Besides, the “Total products F87A-F96G-F193A” value in [6] came to 0.065 area/10^6. Moreover, the “Total products Y96V” value in [7] amounted to 1.6 area/10^6. Besides, in test [8], the “Total products Y96A” value amounted to 7.0 area/10^6. In test [9], the “Mutant Y96A Vs DTT” value turned out to be 20. Also, the “Mutant Y96A ΔSpin high/low” value in test [9] (-- = no shift, nd = not determined) is 20. Also, the “Total products WT” value in test [10] amounted to 0.075 area/10^6.
